Tests used:
[1] = relative pharmacological activity of enantiomers (test not specified); conditions: enantiomers of the compound of Example 2
[2] = Cook/Davidson conflict model for anxiolytic activity; assay type: in vivo; conditions: ip; read-out: dose active in the Cook/Davidson test for anxiolytic activity
From the text: Indicative of anxiolytic activity, compounds of the invention are effective in the Cook/Davidson conflict model (Psychopharmacologia 15, 159-168 (1969).

mongolian gerbil = mongolian gerbil ischemia model; assay type: in vivo; conditions: 10 mg/Kg ip, administered either before or after the ischemia episode
From the text: The cerebral antiischemic activity, that is the effect of the compounds of the invention in preventing or reducing brain damage in mammals due to a transient cerebral ischemia (as in a stroke) can be determined in the mongolian gerbil ischemia model, e.g. the model described by T. Kirino, Brain Research 239, 57-69 (1982).
The inhibitory effect on the observed hyperactivity and on the degeneration of neurons in the hippocampus region of the brain following a 5-minute period of ischemia is measured.
The test compound is administered i.p. 15 minutes before the ischemia or 2, 4, and 6 hours post ischemia.

[3] = system: NMDA-type excitatory amino acid receptors; assay: inhibition of NMDA-evoked 3H-acetylcholine release from rat striatal tissue slices; assay type: cell-based; conditions: stimulation with 50 uM NMDA, read-out: IC50 in the in vitro NMDA-evoked 3H-ACh release test
Method: The inhibitory effect on the NMDA-type excitatory amino acid receptors is determined in vitro by measuring the inhibition of the NMDA-evoked ^3 H-acetylcholine (^3 H-ACh) release from corpus striatum tissue of rat brain, according to J. Lehmann and B. Scatton, Brain Research 252, 77-89 (1982) and Nature 297, 422-424 (1982).
Antagonists of NMDA-type excitatory amino acid receptors competitively antagonize NMDA-evoked ^3 H-acetylcholine (^3 H-ACh) release from corpus striatum tissue of the brain.
The inhibition of the NMDA-evoked ^3 H-acetylcholine (^3 H-ACh) release from rat striatal tissue slices by a compound of the invention is expressed as % of release of ^3 H-ACh in response to stimulation with 50 uM NMDA compared to control. Tests are two-tailed with a minimum of n=4 in each group. In IC50 values represent the concentration of test compound required to inhibit the NMDA-increased ^3 H-ACh release by 50%.

DBA/2 mice = assay: audiogenic-induced seizures in DBA/2 mice; assay type: in vivo; conditions: Mus musculus, ip, 0.75 h, i.p. administration, read-out: ED50 in the audiogenic-induced seizure model
Method: Further indicative of the anticonvulsant activity, compounds of the invention are effective in preventing audiogenic-induced seizures in DBA/2 mice (Chapman et al., Arzneim.-Forsch. 34:1261, 1984).
The effect is determined as follows:
Forty-five minutes following compound or vehicle administration, mice are placed individually in a soundproof chamber. After a 30 second accommodation period, the mice are exposed to a sound stimulation of 110 dB for 1 minute or until the appearance of a tonic-clonic seizure. Control seizures consist of an initial wild running phase. The prevention of wild running is indicative of an anticonvulsant effect.
Test compounds in either distilled water solution or in a 3% (w/v) colloidal cornstarch suspension containing 5% (w/v) polyethyleneglycol 400 and 0.34% (w/v) Tween 80, are administered by oral intubation or intraperitoneally in a volume of 10 ml/kg of body weight.

O=C(O)[C@H]1C[C@@H](CP(=O)(O)O)CCN1 (single isomer, unassigned) [(+)-cis-4-phosphonomethyl-2-piperidinecarboxylic acid]
pharmacological activity relative to the other enantiomer [1]: less active enantiomer

O=C(O)[C@H]1C[C@@H](CP(=O)(O)O)CCN1 (single isomer, unassigned) [(-)-cis-4-phosphonomethyl-2-piperidinecarboxylic acid]
pharmacological activity relative to the other enantiomer [1]: more active enantiomer

O=C(O)[C@H]1C[C@@H](CP(=O)(O)O)CCN1 (relative stereo) [cis-4-phosphonomethyl-2-piperidine-carboxylic acid]
minimal effective dose [2]: ~2 mg/kg
effect on degeneration of cerebral neurons in the hippocampus region of the brain (mongolian gerbil): reduces the degeneration of cerebral neurons
effect on ischemia-induced hyperactivity of the gerbil (mongolian gerbil): inhibits the ischemia-induced hyperactivity

O=C(O)[C@@H]1C[C@H](CP(=O)(O)O)CCN1 (relative stereo) [cis-4-phosphonomethyl-2-piperidinecarboxylic acid hyrdochloride]
IC50 [3]: ~8 µM
ED50 (DBA/2 mice): ~1.8 mg/kg

From US4906621A, “Certain 2-carboxypiperidyl-alkylene phosphonic acids and esters thereof useful for the treatment of disorders responsive to N-methyl-D-aspartate receptor blockade” (Ciba-Geigy Corporation, priority 1987, dated 1990)
